US20230119539A1, “TRACELESS LINKERS AND PROTEIN-CONJUGATES THEREOF” (Regeneron Pharmaceuticals, Inc., priority 2019, published 2023)

Key:
[1] = pH stability of quenched linker-payloads in buffers (LCMS); assay type: physicochemical; conditions: for percentage of the remaining compound: RT
Experimental: To a solution of compound (payloads or quenched-linker-payloads) in DMSO (0.2-1.0 mg/mL) was added corresponding PBS buffer (V(buffer)/V(DMSO)=5) to give test samples (pH 3, 4, 5, 6, 7.4, and 8.5, or other special pH). The test samples were incubated at RT for at least 3 days and monitored by LCMS (i.e., at 1 hr, 2 hr, 4 hr, 8 hr, and 1 day, 2 day, 3 day, 4 day, 5 day, 6 day, 7 day, 8 day, 9 day, and 21 day time points). Initial concentrations of the samples were 0.2 mg/mL (DMSO/buffer, v/v=1/5). […] The payloads and quenched linker-payloads were mostly stable at pH >5.0, 6.0, 7.4 and 8.5 after 3 days. In more acidic conditions, such as pH 1.0, the payloads or linker-payloads were easily cleaved to release D*-OH.

[2] = Solubility of quenched linker-payloads; conditions: Table 3c, linker-payloads quenched with taurine-PEG4-azide or CD-N3
[3] = Solubility of linker-payloads and quenched linker-payloads; assay type: physicochemical; conditions: quenched linker-payloads, Table 6a
Source text: The quenched linker-payloads were water soluble and used for the pH stability test.

Structure (SMILES): CCCC1O[C@@H]2C[C@H]3[C@@H]4CCC5=CC(=O)C=C[C@]5(C)[C@H]4[C@@H](O)C[C@]3(C)[C@]2(C(=O)COCN(C)C(=O)CNC(=O)OCc2ccc(NC(=O)[C@H](CCCNC(N)=O)NC(=O)[C@@H](NC(=O)CCOCCOCCOCCOCCNC(=O)CCC(=O)N3Cc4ccccc4-c4c(nnn4CCOCCOCCOCCOCCC(=O)NCCS(=O)(=O)O)-c4ccccc43)C(C)C)cc2)O1 (stereo partly shown) [Q1L1-PII-8]
- percentage of the remaining compound ([1]; DMSO, 1 Day): 100%
- percentage of the remaining compound ([1]; DMSO, 2 Day): 100%
- percentage of the remaining compound ([1]; DMSO, 3 Day): 100%
- percentage of the remaining compound ([1]; DMSO, 4 Day): 100%
- percentage of the remaining compound ([1]; DMSO, 7 Day): 100%
- percentage of the remaining compound ([1]; DMSO, 1 hr): 100%
- percentage of the remaining compound ([1]; DMSO, 4 hr): 100%
- percentage of the remaining compound ([1]; pH 3.0, 1 Day): 93%
- percentage of the remaining compound ([1]; pH 3.0, 2 Day): 89%
- percentage of the remaining compound ([1]; pH 3.0, 3 Day): 84%
- percentage of the remaining compound ([1]; pH 3.0, 4 Day): 79%
- percentage of the remaining compound ([1]; pH 3.0, 7 Day): 65%
- percentage of the remaining compound ([1]; pH 3.0, 1 hr): 100%
- percentage of the remaining compound ([1]; pH 3.0, 4 hr): 100%
- percentage of the remaining compound ([1]; pH 4.0, 1 Day): 100%
- percentage of the remaining compound ([1]; pH 4.0, 2 Day): 99%
- percentage of the remaining compound ([1]; pH 4.0, 3 Day): 99%
- percentage of the remaining compound ([1]; pH 4.0, 4 Day): 98%
- percentage of the remaining compound ([1]; pH 4.0, 7 Day): 96%
- percentage of the remaining compound ([1]; pH 4.0, 1 hr): 100%
- percentage of the remaining compound ([1]; pH 4.0, 4 hr): 100%
- LP: percentage of linker-payloads remaining ([1]; pH 4.0, day 1): 100%
- P: percentage of budesonide released from the linker-payloads ([1]; pH 4.0, day 1): 0%
- LP: percentage of linker-payloads remaining ([1]; pH 4.0, day 2): 99%
- P: percentage of budesonide released from the linker-payloads ([1]; pH 4.0, day 2): 0%
- LP: percentage of linker-payloads remaining ([1]; pH 4.0, day 7): 96%
- P: percentage of budesonide released from the linker-payloads ([1]; pH 4.0, day 7): 3%
- percentage of the remaining compound ([1]; pH 5.0, 1 Day): 100%
- percentage of the remaining compound ([1]; pH 5.0, 2 Day): 100%
- percentage of the remaining compound ([1]; pH 5.0, 3 Day): 100%
- percentage of the remaining compound ([1]; pH 5.0, 4 Day): 100%
- percentage of the remaining compound ([1]; pH 5.0, 7 Day): 100%
- percentage of the remaining compound ([1]; pH 5.0, 1 hr): 100%
- percentage of the remaining compound ([1]; pH 5.0, 4 hr): 100%
- LP: percentage of linker-payloads remaining ([1]; pH 5.0, day 1): 100%
- P: percentage of budesonide released from the linker-payloads ([1]; pH 5.0, day 1): 0%
- LP: percentage of linker-payloads remaining ([1]; pH 5.0, day 2): 100%
- P: percentage of budesonide released from the linker-payloads ([1]; pH 5.0, day 2): 0%
- LP: percentage of linker-payloads remaining ([1]; pH 5.0, day 7): 100%
- P: percentage of budesonide released from the linker-payloads ([1]; pH 5.0, day 7): 0%
- percentage of the remaining compound ([1]; pH 7.4, 1 Day): 100%
- percentage of the remaining compound ([1]; pH 7.4, 2 Day): 100%
- percentage of the remaining compound ([1]; pH 7.4, 3 Day): 100%
- percentage of the remaining compound ([1]; pH 7.4, 4 Day): 100%
- percentage of the remaining compound ([1]; pH 7.4, 7 Day): 100%
- percentage of the remaining compound ([1]; pH 7.4, 1 hr): 100%
- percentage of the remaining compound ([1]; pH 7.4, 4 hr): 100%
- LP: percentage of linker-payloads remaining ([1]; pH 7.4, day 1): 100%
- P: percentage of budesonide released from the linker-payloads ([1]; pH 7.4, day 1): 0%
- LP: percentage of linker-payloads remaining ([1]; pH 7.4, day 2): 100%
- P: percentage of budesonide released from the linker-payloads ([1]; pH 7.4, day 2): 0%
- LP: percentage of linker-payloads remaining ([1]; pH 7.4, day 7): 100%
- P: percentage of budesonide released from the linker-payloads ([1]; pH 7.4, day 7): 0%
- Solubility [2]: >1000 µg/mL
- Solubility [3]: >1000 µg/mL

Structure (SMILES): CC(C)[C@H](NC(=O)CCOCCOCCOCCOCCNC(=O)CCC(=O)N1Cc2ccccc2-c2c(nnn2CCOCCOCCOCCOCCC(=O)NCCS(=O)(=O)O)-c2ccccc21)C(=O)N[C@@H](CCCNC(N)=O)C(=O)Nc1ccc(COC(=O)NCC(=O)NCOCC(=O)[C@@]2(O)[C@H](C)C[C@H]3[C@@H]4CCC5=CC(=O)C=C[C@]5(C)[C@@]4(F)[C@@H](O)C[C@@]32C)cc1 [Q1L1-PI]
- percentage of the remaining compound ([1]; DMSO, 1 Day): 100%
- percentage of the remaining compound ([1]; DMSO, 2 Day): 100%
- percentage of the remaining compound ([1]; DMSO, 3 Day): 100%
- percentage of the remaining compound ([1]; DMSO, 4 Day): 100%
- percentage of the remaining compound ([1]; DMSO, 7 Day): 100%
- percentage of the remaining compound ([1]; DMSO, 1 hr): 100%
- percentage of the remaining compound ([1]; DMSO, 4 hr): 100%
- percentage of the remaining compound ([1]; pH 3.0, 1 Day): 100%
- percentage of the remaining compound ([1]; pH 3.0, 2 Day): 100%
- percentage of the remaining compound ([1]; pH 3.0, 3 Day): 96%
- percentage of the remaining compound ([1]; pH 3.0, 4 Day): 95%
- percentage of the remaining compound ([1]; pH 3.0, 7 Day): 91%
- percentage of the remaining compound ([1]; pH 3.0, 1 hr): 100%
- percentage of the remaining compound ([1]; pH 3.0, 4 hr): 100%
- percentage of the remaining compound ([1]; pH 4.0, 1 Day): 100%
- percentage of the remaining compound ([1]; pH 4.0, 2 Day): 100%
- percentage of the remaining compound ([1]; pH 4.0, 3 Day): 100%
- percentage of the remaining compound ([1]; pH 4.0, 4 Day): 100%
- percentage of the remaining compound ([1]; pH 4.0, 7 Day): 100%
- percentage of the remaining compound ([1]; pH 4.0, 1 hr): 100%
- percentage of the remaining compound ([1]; pH 4.0, 4 hr): 100%
- percentage of the remaining compound ([1]; pH 5.0, 1 Day): 100%
- percentage of the remaining compound ([1]; pH 5.0, 2 Day): 100%
- percentage of the remaining compound ([1]; pH 5.0, 3 Day): 100%
- percentage of the remaining compound ([1]; pH 5.0, 4 Day): 100%
- percentage of the remaining compound ([1]; pH 5.0, 7 Day): 100%
- percentage of the remaining compound ([1]; pH 5.0, 1 hr): 100%
- percentage of the remaining compound ([1]; pH 5.0, 4 hr): 100%
- percentage of the remaining compound ([1]; pH 7.4, 1 Day): 100%
- percentage of the remaining compound ([1]; pH 7.4, 2 Day): 100%
- percentage of the remaining compound ([1]; pH 7.4, 3 Day): 100%
- percentage of the remaining compound ([1]; pH 7.4, 4 Day): 100%
- percentage of the remaining compound ([1]; pH 7.4, 7 Day): 100%
- percentage of the remaining compound ([1]; pH 7.4, 1 hr): 100%
- percentage of the remaining compound ([1]; pH 7.4, 4 hr): 100%
- Solubility ([3]; water, read-out: Solubility): > 1000 µg/mL
